This note sets out measurements from ChEMBL document CHEMBL4602703, “Lead Optimization of a Pyrrole-Based Dihydroorotate Dehydrogenase Inhibitor Series for the Treatment of Malaria” (J Med Chem, 2020).

Experiment [1] deals with Plasmodium falciparum. Put plainly: microbe, parasite or virus in culture. The settings on record: 3D7, 72 h.
In experiment [2] the target is Dihydroorotate dehydrogenase (quinone), mitochondrial (Homo sapiens, UniProt Q02127).
Experiment [3] in a line: Inhibition of N-terminal His6-tagged Plasmodium falciparum DHODH expressed in Escherichia coli BL21(DE3) cells using L-DHO as substrate by DCIP dye based assay.

Dihydroorotate dehydrogenase (quinone), mitochondrial, sequence (Q02127 whole entry): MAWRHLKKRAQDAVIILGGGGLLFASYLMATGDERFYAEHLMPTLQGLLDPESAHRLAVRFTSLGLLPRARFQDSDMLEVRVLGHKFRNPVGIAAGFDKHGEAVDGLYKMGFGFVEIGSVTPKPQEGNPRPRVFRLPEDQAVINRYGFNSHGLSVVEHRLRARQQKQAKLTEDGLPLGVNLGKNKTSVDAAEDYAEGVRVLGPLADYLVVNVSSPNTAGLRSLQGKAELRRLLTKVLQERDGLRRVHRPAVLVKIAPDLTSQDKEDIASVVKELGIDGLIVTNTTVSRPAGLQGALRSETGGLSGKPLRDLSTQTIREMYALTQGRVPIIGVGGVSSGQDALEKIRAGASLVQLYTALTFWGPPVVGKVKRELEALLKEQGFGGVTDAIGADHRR

Take `Cc1c(Cc2ccc(C(F)(F)F)nc2)c[nH]c1C(=O)NC(C)(C)C`: in experiment [1], the EC50 turned out to be 51 nM. Besides, the figures for the IC50 in experiment [2] and in experiment [3] were above 100000 nM and 110 nM, respectively.
For the molecule `Cc1[nH]c(C(=O)NC(C)(C)C)cc1Cc1ccc(C(F)(F)F)nc1`, the EC50 in experiment [1] turned out to be 3500 nM. The molecule further gave a half-maximal inhibitory concentration (IC50) in experiment [3] of 5700 nM.
Take `CCOC(=O)c1[nH]c(C)c(Cc2cccc(OCC)c2)c1C`: a half-maximal response in experiment [1] (EC50) required 530 nM. Also, the 50% inhibitory concentration (IC50) was above 100000 nM in experiment [2] and 830 nM in experiment [3].
The like results for `CCOC(=O)c1[nH]cc(Cc2ccc(C(F)(F)F)cc2F)c1C` were, in that order, 28 nM, above 100000 nM and 35 nM.
The like results for `CCCNC(=O)c1[nH]c(C)c(Cc2ccc(C(F)(F)F)cc2)c1C` were, in that order, 110 nM, above 100000 nM and 300 nM.
With `CCOC(=O)c1c(C)c(Cc2ccc(C(F)(F)F)cc2)c(C)n1C`, the IC50 in experiment [3] was above 100000 nM.
Molecule `Cc1[nH]c(C(=O)O)c(C)c1Cc1ccc(C(F)(F)F)cc1` came in with a concentration for a half-maximal effect (EC50) in experiment [1] above 10000 nM.
`Cc1c(Cc2ccc(C(F)(F)F)nc2)c[nH]c1C(=O)NS(C)(=O)=O`: the concentration giving a half-maximal response (EC50) in experiment [1] was above 100000 nM. The molecule further came in with a half-inhibitory concentration (IC50) in experiment [3] above 100000 nM.
In experiment [1], `Cc1c(Cc2ccc(C(F)(F)F)nc2)c[nH]c1C(=O)NC1CC(F)(F)C1` gave an EC50 of 1300 nM. The molecule also came in with an IC50 in experiment [3] of 3600 nM.
The like results for `Cc1c(Cc2ccc(C(F)(F)F)nc2)c[nH]c1C(=O)N1CCCC1` were, in that order, 4800 nM and 9800 nM.
For `Cc1[nH]c(C(=O)NC(C)C)cc1Cc1ccc(C(F)(F)F)nc1`, in experiment [1], a half-maximal effect (EC50) was put at 1900 nM. Further, the concentration for half-maximal inhibition (IC50) in experiment [3] came to 2800 nM.
Taken in the same sequence, the figures for `O=C(NC1CC1)c1[nH]cc(Cc2ccc(C(F)(F)F)nc2)c1CO` were 1200 nM and 4300 nM.
With `Cc1[nH]c(C(=O)NC2CCOCC2)cc1Cc1ccc(C(F)(F)F)nc1`, in experiment [1], the EC50 was above 10000 nM. In experiment [3], this molecule had an IC50 above 100000 nM.
The like results for `Cc1c(Cc2c(F)cc(C(F)(F)F)cc2F)c[nH]c1C(=O)NC1CC1` were, in that order, 420 nM and 1200 nM.
With `CCOC(=O)c1[nH]cc(Cc2c(F)cc(C(F)(F)F)cc2F)c1C`, the EC50 in experiment [1] is above 10000 nM. For the same molecule, in experiment [3], the IC50 was above 30000 nM.
The like results for `Cc1[nH]c(C(=O)N(C)C)c(C)c1Cc1ccc(C(F)(F)F)nc1` were, in that order, above 10000 nM and above 30000 nM.
Turning to `Cc1[nH]c(C(=O)NC2CN(C)C2)cc1Cc1ccc(C(F)(F)F)nc1`, the EC50 in experiment [1] was above 20000 nM. In experiment [3], this molecule had a half-inhibitory concentration (IC50) above 100000 nM.
The like results for `Cc1c(Cc2ccc(C(F)(F)F)nc2)c[nH]c1C(=O)NC1(C(F)(F)F)CC1` were, in that order, 3900 nM and 9300 nM.
Taken in the same sequence, the figures for `Cc1[nH]c(C(=O)NC2CCN(C)CC2)cc1Cc1ccc(C(F)(F)F)nc1` were above 10000 nM and above 100000 nM.
The like results for `CCN(CC)C(=O)c1[nH]c(C)c(Cc2ccc(C(F)(F)F)nc2)c1C` were, in that order, above 10000 nM and 13000 nM.
Turning to `CCOC(=O)c1[nH]cc(Cc2ccc(C#N)nc2)c1C`, the EC50 in experiment [1] was determined as 200 nM. The concentration for half-maximal inhibition (IC50) in experiment [3] amounted to 630 nM.
For the molecule `Cc1[nH]c(C(=O)NC2CC2)c(C)c1Cc1ccc(C(F)(F)F)cn1`, it took 340 nM to reach a half-maximal effect in experiment [1] (EC50). In addition, in experiment [3], it took 440 nM to reach half-maximal inhibition (IC50).
In experiment [1], `Cc1[nH]c(C(=O)NC2CCNCC2)cc1Cc1ccc(C(F)(F)F)nc1` gave a 50% effective concentration (EC50) above 10000 nM. The molecule further displayed a half-inhibitory concentration (IC50) in experiment [3] above 100000 nM.
Taken in the same sequence, the figures for `Cc1c(Cc2ccc(C(F)(F)F)nc2)c[nH]c1C(=O)NC1CC(F)C1` (stereo not drawn) were 170 nM and 320 nM.
Regarding `CCOC(=O)c1[nH]c(C)c(C(=O)c2ccc(C(F)(F)F)cn2)c1C`, the EC50 in experiment [1] came out at 6500 nM. In addition, inhibition in experiment [3] was half-maximal at 21000 nM (IC50).
`Cc1c(C(=O)NC2CC2)[nH]c(C(F)(F)F)c1Cc1ccc(C(F)(F)F)nc1`: the half-maximal effective concentration (EC50) in experiment [1] was found to be 770 nM. Besides, the IC50 in experiment [3] was determined as 1600 nM.
The molecule `Cc1[nH]c(C(=O)NC2CNC2)cc1Cc1ccc(C(F)(F)F)nc1` came in with a concentration giving a half-maximal response (EC50) in experiment [1] above 20000 nM. Further, in experiment [3], the IC50 was above 100000 nM.
Taken in the same sequence, the figures for `CCOC(=O)c1[nH]cc(Cc2ccc(C(F)(F)F)cc2OC)c1C` were 810 nM and 1100 nM.
